Counter-ions that a name gives are not always drawn.
What was measured:
EGFR WT = EGFR WT (Homo sapiens (Human), UniProt P00533); assay: ErbB enzyme assay (CisBio HTRF-KinEASE-TK), EGFR WT; type: biochemical; conditions: ATP at Km (25 μM), 1 h incubation
Outline: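 Potency comes from a homogeneous time-resolved fluorescence kinase format measuring tyrosine substrate phosphorylation. Reactions and detection steps each run 1 h at ambient temperature. IC50 values are interpolated from 4-parameter logistic fits of percent-of-control data.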

ErbB2 V777L = ErbB2 V777L (Homo sapiens (Human), UniProt P04626, V777L); assay: ErbB enzyme assay (CisBio HTRF-KinEASE-TK), ErbB2 V777L; type: biochemical
ErbB2 V777L, sequence (P04626 23-1255 V777L): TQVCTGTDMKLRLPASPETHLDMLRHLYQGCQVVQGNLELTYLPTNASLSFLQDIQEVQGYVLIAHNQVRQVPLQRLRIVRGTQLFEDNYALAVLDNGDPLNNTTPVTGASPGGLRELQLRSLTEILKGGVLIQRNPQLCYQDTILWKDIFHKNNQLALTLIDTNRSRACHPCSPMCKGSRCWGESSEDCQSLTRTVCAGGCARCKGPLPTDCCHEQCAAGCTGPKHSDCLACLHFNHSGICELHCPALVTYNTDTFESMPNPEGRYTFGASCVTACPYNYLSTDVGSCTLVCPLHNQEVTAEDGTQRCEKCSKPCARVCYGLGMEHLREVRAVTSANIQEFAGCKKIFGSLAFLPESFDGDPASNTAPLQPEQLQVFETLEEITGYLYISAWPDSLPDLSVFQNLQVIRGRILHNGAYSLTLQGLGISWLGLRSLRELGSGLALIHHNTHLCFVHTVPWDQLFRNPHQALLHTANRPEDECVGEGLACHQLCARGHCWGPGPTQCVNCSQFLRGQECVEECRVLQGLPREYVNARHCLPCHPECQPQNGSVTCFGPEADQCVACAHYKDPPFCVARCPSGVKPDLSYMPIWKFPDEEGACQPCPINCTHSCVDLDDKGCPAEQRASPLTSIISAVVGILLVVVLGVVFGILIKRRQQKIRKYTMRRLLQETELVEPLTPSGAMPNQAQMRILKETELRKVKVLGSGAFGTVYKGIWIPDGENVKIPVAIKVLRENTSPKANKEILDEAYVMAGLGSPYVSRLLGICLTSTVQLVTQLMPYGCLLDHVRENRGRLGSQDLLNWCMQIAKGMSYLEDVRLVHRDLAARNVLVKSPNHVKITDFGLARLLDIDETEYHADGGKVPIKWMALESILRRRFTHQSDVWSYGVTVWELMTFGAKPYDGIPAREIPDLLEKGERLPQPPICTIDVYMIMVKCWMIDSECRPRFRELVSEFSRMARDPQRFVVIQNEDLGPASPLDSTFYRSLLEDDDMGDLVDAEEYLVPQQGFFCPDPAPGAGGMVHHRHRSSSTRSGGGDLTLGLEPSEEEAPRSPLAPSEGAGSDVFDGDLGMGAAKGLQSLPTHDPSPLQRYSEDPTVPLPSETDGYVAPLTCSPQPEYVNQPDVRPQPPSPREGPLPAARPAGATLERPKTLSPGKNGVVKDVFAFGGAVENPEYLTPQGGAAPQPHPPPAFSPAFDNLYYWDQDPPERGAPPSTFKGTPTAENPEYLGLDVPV
Outline: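 HTRF KinEASE-TK tyrosine-kinase read-out of substrate phosphorylation after a final 1 h at ambient temperature, from the 655/620 nm emission ratio.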

EGFR WT, sequence (P00533 25-1210): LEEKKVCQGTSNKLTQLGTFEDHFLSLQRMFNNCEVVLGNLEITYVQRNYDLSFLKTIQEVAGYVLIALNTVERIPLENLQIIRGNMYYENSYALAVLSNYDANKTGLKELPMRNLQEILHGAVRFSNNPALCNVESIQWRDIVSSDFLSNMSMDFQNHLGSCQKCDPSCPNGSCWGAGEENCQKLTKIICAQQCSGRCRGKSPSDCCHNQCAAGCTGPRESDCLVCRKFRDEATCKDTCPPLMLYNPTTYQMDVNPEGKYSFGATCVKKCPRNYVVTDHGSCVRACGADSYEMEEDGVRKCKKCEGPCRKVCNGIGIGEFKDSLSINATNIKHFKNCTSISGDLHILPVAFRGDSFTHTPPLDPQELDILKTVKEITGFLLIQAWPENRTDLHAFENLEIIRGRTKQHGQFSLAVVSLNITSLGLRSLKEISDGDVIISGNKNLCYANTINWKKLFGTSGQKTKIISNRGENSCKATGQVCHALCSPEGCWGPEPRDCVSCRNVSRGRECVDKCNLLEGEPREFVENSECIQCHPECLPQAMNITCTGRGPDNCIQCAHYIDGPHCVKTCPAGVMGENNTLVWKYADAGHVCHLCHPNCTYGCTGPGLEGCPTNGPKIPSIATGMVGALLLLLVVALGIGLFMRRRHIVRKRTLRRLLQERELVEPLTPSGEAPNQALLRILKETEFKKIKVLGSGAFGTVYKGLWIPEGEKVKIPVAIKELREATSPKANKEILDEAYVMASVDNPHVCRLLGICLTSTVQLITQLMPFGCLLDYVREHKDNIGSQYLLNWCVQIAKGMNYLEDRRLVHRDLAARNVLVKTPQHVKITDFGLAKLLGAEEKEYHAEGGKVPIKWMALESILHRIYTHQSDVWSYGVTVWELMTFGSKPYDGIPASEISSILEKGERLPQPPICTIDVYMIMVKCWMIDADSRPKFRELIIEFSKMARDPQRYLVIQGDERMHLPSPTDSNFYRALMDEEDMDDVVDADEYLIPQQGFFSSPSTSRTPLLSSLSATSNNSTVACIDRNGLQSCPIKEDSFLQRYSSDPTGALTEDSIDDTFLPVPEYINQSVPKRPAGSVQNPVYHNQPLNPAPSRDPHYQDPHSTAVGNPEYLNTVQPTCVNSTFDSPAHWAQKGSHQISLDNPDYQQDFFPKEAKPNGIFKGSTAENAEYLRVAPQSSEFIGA

SMILES	IC50 (EGFR WT)	IC50 (ErbB2 V777L)
C=CC(=O)N1CCN(c2ncc3ncnc(Nc4ccc(Oc5cnc6c(c5)ncn6C(F)F)c(C)c4F)c3n2)C[C@H]1C [Compound 177, (R)-1-(4-(8-((4-((3-(difluoromethyl)-3H-imidazo[4,5-b]pyridin-6-yl)oxy)-2-fluoro-3-methylphenyl)amino)pyrimido[5,4-d]pyrimidin-2-y1)-2-methylpiperazin-1-yl)prop-2-en-1-one]	< 50 nM	100 to 500 nM
C=C1CCN([C@@H]2CCN(c3ncc4ncnc(Nc5ccc(Oc6ccn7ncnc7c6)c(C)c5)c4n3)C2)C1=O [Compound 238, (R)-1′-(8-((4-([1,2,4]triazolo[1,5-a]pyridin-7-yloxy)-3-methylphenyl)amino)pyrimido[5,4-d]pyrimidin-2-yl)-3-methylene-[1,3′-bipyrrolidin]-2-one]	≥ 1000 nM	100 to 500 nM
C=CC(=O)N1CCN(c2ncc3ncnc(Nc4cc(C)c(Oc5ccc6c(c5)nnn6C)cc4F)c3n2)CC1 [Compound 6, 1-(4-(8-((2-fluoro-5-methyl-4-((1-methyl-1H-benzo[d][1,2,3]triazol-5-yl)oxy)phenyl)amino)pyrimido [5,4-d]pyrimidin-2-yl)piperazin-1-yl)prop-2-en-1-one]	100 to 500 nM	100 to 500 nM
C=CC(=O)N[C@@H]1CCCCN(c2ncc3ncnc(Nc4ccc(Oc5ccc6c(c5)nnn6C)c(C)c4F)c3n2)C1 [Compound 170, (R)-N-(1-(8-((2-fluoro-3-methyl-4-((1-methyl-1H-benzo[d][1,2,3]triazol-5-yl)oxy)phenyl)amino)pyrimido[5,4-d]pyrimidin-2-yl)azepan-3-yl)acrylamide]	100 to 500 nM	100 to 500 nM
C=CC(=O)N1CCN(c2ccc3ncnc(Nc4cc(C)c(Oc5ccc6c(c5)nnn6C)cc4OC(F)(F)F)c3n2)CC1 [Compound 312, 1-(4-(4-((5-methyl-4-((1-methyl-1H-benzo[d][1,2,3]triazol-5-yl)oxy)-2-(trifluoromethoxy)phenyl)amino)py-rido[3,2-d]pyrimidin-6-yl)piperazin-1-yl)prop-2-en-1-one]	100 to 500 nM	100 to 500 nM
C=CC(=O)N1C2C=C(c3ccc4ncnc(Nc5ccc(Oc6ccc7c(c6)nnn7C)c(C)c5F)c4n3)CC1CCC2 (stereo not shown) [Compound 414, 1-(3-(4-((2-fluoro-3-methyl-4-((1-methyl-1H-benzo[d][1,2,3]triazol-5-yl)oxy)phenyl)amino)pyrido[3,2-d]pyrimidin-6-yl)-9-azabicyclo[3.3.1]non-2-en-9-yl)prop-2-en-1-one]	500 to 1000 nM	500 to 1000 nM
C=CC(=O)N1CCN(c2ncc3ncnc(Nc4c(F)cc(Oc5ccc6c(c5)nnn6C)cc4F)c3n2)CC1 [Compound 20, 1-(4-(8-((2,6-difluoro-4-((1-methyl-1H-benzo[d][1,2,3]triazol-5-yl)oxy)phenyl)amino)pyrimido[5,4-d]pyrimidin-2-yl)piperazin-1-yl)prop-2-en-1-one]	100 to 500 nM	500 to 1000 nM
C=CC(=O)N1CCCN(c2ccc3ncnc(Nc4ccc(Oc5ccn6ncnc6c5)c(C)c4)c3n2)CC1 [Compound 357, 1-(4-(4-((4-([1,2,4]triazolo[1,5-a]pyridin-7-yloxy)-3-methylphenyl)amino)pyrido[3,2-d]pyrimidin-6-yl)-1,4-diazepan-1-yl)prop-2-en-1-one]	500 to 1000 nM	50 to 100 nM
Cc1cc(Nc2ncnc3cnc(N4CCN(C(=O)/C=C/CN5CCCC5)CC4)nc23)ccc1Oc1ccc2c(c1)nnn2C [Compound 52, (E)-1-(4-(8-((3-methyl-4-((1-methyl-1H-benzo[d][1,2,3]triazol-5-yl)oxy)phenyl)amino)pyrimido [5,4-d]pyrimidin-2-yl)piperazin-1-y169yrrolidineolidin-1-yl)but-2-en-1-one]	< 50 nM	50 to 100 nM
C=CC(=O)N1CCN(c2ccc3ncnc(Nc4ccc(Oc5cc(F)c6c(c5)nnn6C)c(C)c4)c3n2)C[C@@H]1C1CC1 [Compound 290, (S)-1-(2-cyclopropyl-4-(4-((4-((7-fluoro-1-methyl-1H-benzo[d][1,2,3]triazol-5-yl)oxy)-3-methylphenyl)amino)pyrido[3,2-d]pyrimidin-6-yl)piperazin-1-yl)prop-2-en-1-one]	500 to 1000 nM	100 to 500 nM

Continued, values first:

IC50 (EGFR WT)	IC50 (ErbB2 V777L)	SMILES
100 to 500 nM	100 to 500 nM	C=CC(=O)N1CCC(c2ccc3ncnc(Nc4ccc(Oc5ccc6c(c5)nnn6C)c(C)c4)c3n2)CC1 [Compound 108, 1-(4-(4-((3-methyl-4-((1-methyl-1H-benzo[d][1,2,3]triazol-5-yl)oxy)phenyl)amino)pyrido[3,2-d]pyrimidin-6-yl)piperidin-1-yl)prop-2-en-1-one]
≥ 1000 nM	500 to 1000 nM	C=CC(=O)N1CCCN(c2ccc3ncnc(Nc4ccc(Oc5ccc6c(c5)nnn6C)c(C)c4)c3n2)C[C@H]1C [Compound 285, (R)-1-(2-methyl-4-(4-((3-methyl-4-((1-methyl-1H-benzo[d][1,2,3]triazol-5-yl)oxy)phenyl)amino)pyrido[3,2-d]pyrimidin-6-yl)-1,4-diazepan-1-yl)prop-2-en-1-one]
500 to 1000 nM	100 to 500 nM	C=CC(=O)N1CCN(c2ncc3ncnc(Nc4ccc(Oc5ccc6c(c5)nnn6C)c(C)c4)c3n2)[C@H](C)C1 [Compound 17, (R)-1-(3-methyl-4-(8-((3-methyl-4-((1-methyl-1H-benzo[d][1,2,3]triazol-5-yl)oxy)phenyl)amino)pyrimido[5,4-d]pyrimidin-2-yl)piperazin-1-yl)prop-2-en-1-one]
500 to 1000 nM	100 to 500 nM	C=CC(=O)N[C@H]1CN(c2ccc3ncnc(Nc4ccc(Oc5ccc6c(c5)nnn6C)c(C)c4)c3n2)CC(F)(F)C1 [Compound 342, (R)-N-(5,5-difluoro-1-(4-((3-methyl-4-((1-methyl-1H-benzo[d][1,2,3]triazol-5-yl)oxy)phenyl)amino)pyrido[3,2-d]pyrimidin-6-yl)piperidin-3-yl)acrylamide]
< 50 nM	50 to 100 nM	C=CC(=O)N1CC2CC1CN2c1ncc2ncnc(Nc3ccc(Oc4ccc5c(c4)nnn5C)c(C)c3)c2n1 (stereo not shown) [Compound 61, 1-(5-(8-((3-methyl-4-((1-methyl-1H-benzo[d][1,2,3]triazol-5-yl)oxy)phenyl)amino)pyrimido[5,4-d]pyrimidin-2-yl)-2,5-diazabicyclo[2.2.1]heptan-2-yl)prop-2-en-1-one]
≥ 1000 nM	100 to 500 nM	C=CC(=O)N1CCN(c2ncc3ncnc(Nc4ccc(Oc5ccc6c(c5)nnn6C)c(C)c4)c3n2)C[C@@H]1C1CC1 [Compound 117, (S)-1-(2-cyclopropyl-4-(8-((3-methyl-4-((1-methyl-1H-benzo[d][1,2,3]triazol-5-yl)oxy)phenyl)amino)pyrimido[5,4-d]pyrimidin-2-yl)piperazin-1-yl)prop-2-en-1-one]
100 to 500 nM	100 to 500 nM	C=CC(=O)NC1CCN(c2ncc3ncnc(Nc4ccc(Oc5ccc6c(c5)nnn6C)c(C)c4)c3n2)CC1 [Compound 123, N-(1-(8-((3-methyl-4-((1-methyl-1H-benzo[d][1,2,3]triazol-5-yl)oxy)phenyl)amino)pyrimido[5,4-d]pyrimidin-2-yl)piperidin-4-yl)acrylamide]
100 to 500 nM	100 to 500 nM	C=CC(=O)N1CC[C@H](N(C)c2ccc3ncnc(Nc4ccc(Oc5ccc6c(c5)nnn6C)c(C)c4)c3n2)[C@@H]1C [Compound 265, 1-((2S,3S)-2-methyl-3-(methyl(4-((3-methyl-4-((1-methyl-1H-benzo[d][1,2,3]triazol-5-yl)oxy)phenyl)amino)pyrido[3,2-d]pyrimidin-6-yl)amino)pyrrolidin-1-yl)prop-2-en-1-one]
50 to 100 nM	50 to 100 nM	C=C(F)C(=O)N1CC(F)(F)C12CN(c1ncc3ncnc(Nc4ccc(Oc5ccc6c(c5)nnn6C)c(C)c4)c3n1)C2 [Compound 209, 1-(3,3-difluoro-6-(8-((3-methyl-4-((1-methyl-1H-benzo[d][1,2,3]triazol-5-yl)oxy)phenyl)amino)pyrimido [5,4-d]pyrimidin-2-yl)-1,6-diazaspiro[3.3]heptan-1-yl)-2-fluoroprop-2-en-1-one]
100 to 500 nM	100 to 500 nM	C=CC(=O)NC1CC=C(c2ccc3ncnc(Nc4ccc(Oc5ccc6c(c5)nnn6C)c(C)c4)c3n2)CC1 (stereo not shown) [Compound 412, N-(4-(4-((3-methyl-4-((1-methyl-1H-benzo[d][1,2,3]triazol-5-yl)oxy)phenyl)amino)pyrido[3,2-d]pyrimidin-6-yl)cyclohex-3-en-1-yl)acrylamide]
≥ 1000 nM	500 to 1000 nM	C=CC(=O)N1CCN(c2ncc3ncnc(Nc4ccc(Oc5ccc6c(c5)nnn6C)c(C)c4)c3n2)C[C@@H]1CC [Compound 115, (S)-1-(2-ethyl-4-(8-((3-methyl-4-((1-methyl-1H-benzo[d][1,2,3]triazol-5-yl)oxy)phenyl)amino)pyrimido[5,4-d]pyrimidin-2-yl)piperazin-1-yl)prop-2-en-1-one]
100 to 500 nM	50 to 100 nM	C=CC(=O)N1CCN(c2ccc3ncnc(Nc4cc(C)c(Oc5ccc6c(c5)nnn6C)cc4F)c3n2)CC1 [Compound 94, 1-(4-(4-((2-fluoro-5-methyl-4-((1-methyl-1H-benzo[d][1,2,3]triazol-5-yl)oxy)phenyl)amino)pyrido[3,2-d]pyrimidin-6-yl)piperazin-1-yl)prop-2-en-1-one]
100 to 500 nM	50 to 100 nM	C=CC(=O)N1C2COCC1CC(c1ccc3ncnc(Nc4ccc(Oc5ccc6c(c5)nnn6C)c(C)c4)c3n1)C2 (stereo not shown) [Compound 396, 1-(7-(4-((3-methyl-4-((1-methyl-1H-benzo[d][1,2,3]triazol-5-yl)oxy)phenyl)amino)pyrido[3,2-d]pyrimidin-6-y1)-3-oxa-9-azabicyclo[3.3.1]nonan-9-yl)prop-2-en-1-one trifluoroacetate]

— patent publication US20250129078A1, “ERBB2 INHIBITORS” (Cogent Biosciences, Inc., priority 2023, published 2025)
